Test results published in PubChem BioAssay AID1259407 (Chemical Carcinogenesis Research Information System (CCRIS), 2018).
The source made the active and inactive calls. The rule behind the calls is not given here.

Test system: CCRIS mutagenicity, Ames/micronucleus/aberration tests
Assay: CCRIS mutagenicity studies
[1] = Test System: AMES SALMONELLA TYPHIMURIUM, Strain/Indicator: TA98, Metabolic Activation: NONE, Method: STANDARD PLATE
[2] = Test System: AMES SALMONELLA TYPHIMURIUM, Strain/Indicator: TA98, Metabolic Activation: RAT, LIVER, S-9, AROCLOR 1254, Method: STANDARD PLATE
[3] = Test System: AMES SALMONELLA TYPHIMURIUM, Strain/Indicator: TA100, Metabolic Activation: NONE, Method: STANDARD PLATE
[4] = Test System: AMES SALMONELLA TYPHIMURIUM, Strain/Indicator: TA100, Metabolic Activation: RAT, LIVER, S-9, AROCLOR 1254, Method: STANDARD PLATE
[5] = Test System: AMES SALMONELLA TYPHIMURIUM, Strain/Indicator: TA1535, Metabolic Activation: NONE, Method: STANDARD PLATE
[6] = Test System: AMES SALMONELLA TYPHIMURIUM, Strain/Indicator: TA1535, Metabolic Activation: RAT, LIVER, S-9, AROCLOR 1254, Method: STANDARD PLATE
[7] = Test System: AMES SALMONELLA TYPHIMURIUM, Strain/Indicator: TA1537, Metabolic Activation: NONE, Method: STANDARD PLATE
[8] = Test System: AMES SALMONELLA TYPHIMURIUM, Strain/Indicator: TA1537, Metabolic Activation: RAT, LIVER, S-9, AROCLOR 1254, Method: STANDARD PLATE
[9] = Test System: AMES SALMONELLA TYPHIMURIUM, Strain/Indicator: TA1538, Metabolic Activation: RAT, LIVER, S-9, AROCLOR 1254, Method: STANDARD PLATE
[10] = Test System: AMES SALMONELLA TYPHIMURIUM, Strain/Indicator: TA100, Metabolic Activation: NONE, Method: PREINCUBATION
[11] = Test System: AMES SALMONELLA TYPHIMURIUM, Strain/Indicator: TA1535, Metabolic Activation: NONE, Method: PREINCUBATION

COC(=O)C(C)(C)Oc1ccc(-c2ccc(Cl)cc2)cc1
mutagenic call [1]: inactive; negative | mutagenic call [2]: inactive; negative | mutagenic call (Test System: AMES SALMONELLA TYPHIMURIUM, Strain/Indicator: TA98, Metabolic Activation: RAT, LIVER, S-9, PHENOBARBITONE AND BETA-NAPHTHOFLAVONE, Method: PREINCUBATION): inactive; negative | mutagenic call [3]: inactive; negative | mutagenic call [4]: inactive; negative | mutagenic call (Test System: AMES SALMONELLA TYPHIMURIUM, Strain/Indicator: TA100, Metabolic Activation: RAT, LIVER, S-9, PHENOBARBITONE AND BETA-NAPHTHOFLAVONE, Method: PREINCUBATION): inactive; negative | mutagenic call [5]: inactive; negative | mutagenic call [6]: inactive; negative | mutagenic call [7]: inactive; negative | mutagenic call [8]: inactive; negative | mutagenic call (Test System: AMES SALMONELLA TYPHIMURIUM, Strain/Indicator: TA1538, Metabolic Activation: NONE, Method: STANDARD PLATE): inactive; negative | mutagenic call [9]: inactive; negative | mutagenic call (Test System: E. COLI, Strain/Indicator: WP2 (PKM101), Metabolic Activation: NONE, Method: STANDARD PLATE): inactive; negative | mutagenic call (Test System: E. COLI, Strain/Indicator: WP2 (PKM101), Metabolic Activation: RAT, LIVER, S-9, AROCLOR 1254, Method: STANDARD PLATE): inactive; negative | mutagenic call (Test System: E. COLI, Strain/Indicator: WP2 (PKM101), Metabolic Activation: RAT, LIVER, S-9, PHENOBARBITONE AND BETA-NAPHTHOFLAVONE, Method: PREINCUBATION): inactive; negative | mutagenic call (Test System: E. COLI, Strain/Indicator: WP2 UVRA (PKM101), Metabolic Activation: NONE, Method: STANDARD PLATE): inactive; negative | mutagenic call (Test System: E. COLI, Strain/Indicator: WP2 UVRA (PKM101), Metabolic Activation: RAT, LIVER, S-9, AROCLOR 1254, Method: STANDARD PLATE): inactive; negative | mutagenic call (Test System: UDS RAT HEPATOCYTES, Metabolic Activation: NONE, Method: AUTORADIOGRAPHY): inactive; negative | mutagenic call (Test System: UDS RAT HEPATOCYTES, Strain/Indicator: BROMODEOXYURIDINE INCORP, Metabolic Activation: NONE): active; positive

[Cl][Sn]([Cl])([Cl])[c]1ccccc1
mutagenic call (Test System: AMES SALMONELLA TYPHIMURIUM, Strain/Indicator: TA98, Metabolic Activation: NONE, Method: SUSPENSION/PLATE): inactive; negative | mutagenic call (Test System: AMES SALMONELLA TYPHIMURIUM, Strain/Indicator: TA100, Metabolic Activation: NONE, Method: SUSPENSION/PLATE): inactive; negative

c1ccc2c(CC3CO3)cccc2c1 (stereo unspecified)
mutagenic call [10]: active; positive | mutagenic call [3]: active; positive | mutagenic call (Test System: AMES SALMONELLA TYPHIMURIUM, Strain/Indicator: TA104, Metabolic Activation: NONE, Method: STANDARD PLATE): active; positive | mutagenic call [11]: active; positive | mutagenic call [5]: active; positive | mutagenic call (Test System: AMES SALMONELLA TYPHIMURIUM, Strain/Indicator: TA4001, Metabolic Activation: NONE, Method: STANDARD PLATE): active; positive | mutagenic call (Test System: AMES SALMONELLA TYPHIMURIUM, Strain/Indicator: TA4006, Metabolic Activation: NONE, Method: STANDARD PLATE): active; positive

Cc1ccc2c(ccc3[nH]c4ccc5ccccc5c4c32)c1
mutagenic call [4]: active; positive

COc1cc(/C=C/C(=O)O[C@H]2CC[C@]34C[C@]35CC[C@]3(C)[C@@H]([C@H](C)CCC=C(C)C)CC[C@@]3(C)[C@@H]5CC[C@H]4C2(C)C)ccc1O
mutagenic call [1]: inactive; negative | mutagenic call (Test System: AMES SALMONELLA TYPHIMURIUM, Strain/Indicator: TA98, Metabolic Activation: S9, Method: STANDARD PLATE): inactive; negative | mutagenic call [3]: inactive; negative | mutagenic call (Test System: AMES SALMONELLA TYPHIMURIUM, Strain/Indicator: TA100, Metabolic Activation: S9, Method: STANDARD PLATE): inactive; negative | mutagenic call [5]: inactive; negative | mutagenic call (Test System: AMES SALMONELLA TYPHIMURIUM, Strain/Indicator: TA1535, Metabolic Activation: S9, Method: STANDARD PLATE): inactive; negative | mutagenic call [7]: inactive; negative | mutagenic call (Test System: AMES SALMONELLA TYPHIMURIUM, Strain/Indicator: TA1537, Metabolic Activation: S9, Method: STANDARD PLATE): inactive; negative | mutagenic call (Test System: E.COLI, Strain/Indicator: WP2 UVRA, Metabolic Activation: NONE, Method: STANDARD PLATE): inactive; negative | mutagenic call (Test System: E.COLI, Strain/Indicator: WP2 UVRA, Metabolic Activation: S9, Method: STANDARD PLATE): inactive; negative

O=C1c2ccc(O)c(O)c2C(=O)c2c(O)ccc(O)c21
mutagenic call [2]: inactive; negative | mutagenic call [3]: inactive; negative | mutagenic call [4]: inactive; negative | mutagenic call [5]: inactive; negative | mutagenic call [6]: inactive; negative | mutagenic call [7]: active; positive | mutagenic call [8]: active; positive | mutagenic call [9]: inactive; negative

C[C@]12CC[C@H](OC(=O)/C=C/c3cccc(N(CCCl)CCCl)c3)CC1=CC[C@@H]1[C@@H]2CC[C@]2(C)NC(=O)CC[C@@H]12
mutagenic call [1]: inactive; negative | mutagenic call [2]: inactive; negative | mutagenic call [3]: inactive; negative | mutagenic call [4]: inactive; negative | mutagenic call [5]: active; positive | mutagenic call [6]: active; positive | mutagenic call [7]: inactive; negative | mutagenic call [8]: inactive; negative

CCCCCc1cc(O)cc(O)c1
mutagenic call (Test System: AMES SALMONELLA TYPHIMURIUM, Strain/Indicator: TA97, Metabolic Activation: HAMSTER, LIVER, S-9, AROCLOR 1254 (10 OR 30%), Method: PREINCUBATION): inactive; negative | mutagenic call (Test System: AMES SALMONELLA TYPHIMURIUM, Strain/Indicator: TA97, Metabolic Activation: NONE, Method: PREINCUBATION): inactive; negative | mutagenic call (Test System: AMES SALMONELLA TYPHIMURIUM, Strain/Indicator: TA97, Metabolic Activation: RAT, LIVER, S-9, AROCLOR 1254 (10 OR 30%), Method: PREINCUBATION): inactive; negative | mutagenic call (Test System: AMES SALMONELLA TYPHIMURIUM, Strain/Indicator: TA98, Metabolic Activation: HAMSTER, LIVER, S-9, AROCLOR 1254 (10%), Method: PREINCUBATION): inactive; negative | mutagenic call (Test System: AMES SALMONELLA TYPHIMURIUM, Strain/Indicator: TA98, Metabolic Activation: HAMSTER, LIVER, S-9, AROCLOR 1254 (30%), Method: PREINCUBATION): inactive; negative | mutagenic call (Test System: AMES SALMONELLA TYPHIMURIUM, Strain/Indicator: TA98, Metabolic Activation: NONE, Method: PREINCUBATION): inactive; negative | mutagenic call (Test System: AMES SALMONELLA TYPHIMURIUM, Strain/Indicator: TA98, Metabolic Activation: RAT, LIVER, S-9, AROCLOR 1254 (10%), Method: PREINCUBATION): inactive; negative | mutagenic call (Test System: AMES SALMONELLA TYPHIMURIUM, Strain/Indicator: TA98, Metabolic Activation: RAT, LIVER, S-9, AROCLOR 1254 (30%), Method: PREINCUBATION): inactive; negative | mutagenic call (Test System: AMES SALMONELLA TYPHIMURIUM, Strain/Indicator: TA100, Metabolic Activation: HAMSTER, LIVER, S-9, AROCLOR 1254 (10%), Method: PREINCUBATION): inactive; negative | mutagenic call (Test System: AMES SALMONELLA TYPHIMURIUM, Strain/Indicator: TA100, Metabolic Activation: HAMSTER, LIVER, S-9, AROCLOR 1254 (30%), Method: PREINCUBATION): inactive; negative | mutagenic call [10]: inactive; negative | mutagenic call (Test System: AMES SALMONELLA TYPHIMURIUM, Strain/Indicator: TA100, Metabolic Activation: RAT, LIVER, S-9, AROCLOR 1254 (10%), Method: PREINCUBATION): inactive; negative | mutagenic call (Test System: AMES SALMONELLA TYPHIMURIUM, Strain/Indicator: TA100, Metabolic Activation: RAT, LIVER, S-9, AROCLOR 1254 (30%), Method: PREINCUBATION): inactive; negative | mutagenic call (Test System: AMES SALMONELLA TYPHIMURIUM, Strain/Indicator: TA1535, Metabolic Activation: HAMSTER, LIVER, S-9, AROCLOR 1254 (10 OR 30%), Method: PREINCUBATION): inactive; negative | mutagenic call [11]: inactive; negative | mutagenic call (Test System: AMES SALMONELLA TYPHIMURIUM, Strain/Indicator: TA1535, Metabolic Activation: RAT, LIVER, S-9, AROCLOR 1254 (10 OR 30%), Method: PREINCUBATION): inactive; negative
